According to patent US20240300932A1, “N-PHENYLIMINE DERIVATIVE AND PREPARATION METHOD AND USE THEREOF” (Guizhou University, priority 2023, published 2024):

Legend:
Assay in all cases: Post-emergence herbicidal activity test (stem and leaf spray, pot culture)
Format in all cases: in vivo
Conditions in all cases: 3 weeks after spraying
[1] = tested on: Portulaca oleracea
In short: (§1)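 Seeds soaked 6 h at 25 °C, germinated at 28 °C, sown in loam pots and thinned to 10 plants/pot. At 2–3 leaves, plants received a single spray-tower application of 10, 5 or 2.5 g/mu. Fresh-weight control was graded 0–5 after 3 weeks.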

[2] = tested on: Abutilon theophrasti
In short: as §1

[3] = tested on: Echinochloa crusgalli
In short: as §1

[4] = tested on: Amaranthus retroflexus
In short: as §1

[5] = tested on: Setaria viridis
In short: as §1

[6] = tested on: Trifoliumre pensL.
In short: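 Rates of 10, 5 and 2.5 g/mu were applied in a single spray-tower treatment to 2–3-leaf plants, thinned to 10 per pot. Formulation: acetone solution, Tween 80, 1.5 L/ha methyl oleate synergist. Weed response assessed after 3 further greenhouse weeks; mean of three experiments.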

## Cc1ccc(-c2noc(COc3cc(N4C(=O)C5=C(CCCC5)C4=O)c(F)cc3Cl)n2)c(F)c1 [Compound A9]
[1]; dosage 2.5 g/mu
  Post-emergence herbicidal activity, P. oleracea (grade): 4 (Grade 4: the growth control rate is greater than or equal to 60% and less than 85%)
[1]; dosage 5 g/mu
  Post-emergence herbicidal activity, P. oleracea (grade): 5 (Grade 5: the growth control rate is greater than or equal to 85%)
[1]; dosage 10 g/mu
  Post-emergence herbicidal activity, P. oleracea (grade): 5 (Grade 5: the growth control rate is greater than or equal to 85%)
[2]; dosage 2.5 g/mu
  Post-emergence herbicidal activity, A. theophrasti (grade): 5 (Grade 5: the growth control rate is greater than or equal to 85%)
[2]; dosage 5 g/mu
  Post-emergence herbicidal activity, A. theophrasti (grade): 5 (Grade 5: the growth control rate is greater than or equal to 85%)
[2]; dosage 10 g/mu
  Post-emergence herbicidal activity, A. theophrasti (grade): 5 (Grade 5: the growth control rate is greater than or equal to 85%)
[3]; dosage 2.5 g/mu
  Post-emergence herbicidal activity, E. crusgalli (grade): 1 (Grade 1: the growth control rate is greater than or equal to 5% and less than 20%)
[3]; dosage 5 g/mu
  Post-emergence herbicidal activity, E. crusgalli (grade): 2 (Grade 2: the growth control rate is greater than or equal to 20% and less than 40%)
[3]; dosage 10 g/mu
  Post-emergence herbicidal activity, E. crusgalli (grade): 3 (Grade 3: the growth control rate is greater than or equal to 40% and less than 60%)
[4]; dosage 2.5 g/mu
  Post-emergence herbicidal activity, A. retroflexus (grade): 5 (Grade 5: the growth control rate is greater than or equal to 85%)
[4]; dosage 5 g/mu
  Post-emergence herbicidal activity, A. retroflexus (grade): 5 (Grade 5: the growth control rate is greater than or equal to 85%)
[4]; dosage 10 g/mu
  Post-emergence herbicidal activity, A. retroflexus (grade): 5 (Grade 5: the growth control rate is greater than or equal to 85%)
[5]; dosage 2.5 g/mu
  Post-emergence herbicidal activity, S. viridis (grade): 2 (Grade 2: the growth control rate is greater than or equal to 20% and less than 40%)
[5]; dosage 5 g/mu
  Post-emergence herbicidal activity, S. viridis (grade): 3 (Grade 3: the growth control rate is greater than or equal to 40% and less than 60%)
[5]; dosage 10 g/mu
  Post-emergence herbicidal activity, S. viridis (grade): 4 (Grade 4: the growth control rate is greater than or equal to 60% and less than 85%)
[6]; dosage 2.5 g/mu
  Post-emergence herbicidal activity, Trifoliumre pensL. (grade): 4 (Grade 4: the growth control rate is greater than or equal to 60% and less than 85%)
[6]; dosage 5 g/mu
  Post-emergence herbicidal activity, Trifoliumre pensL. (grade): 5 (Grade 5: the growth control rate is greater than or equal to 85%)
[6]; dosage 10 g/mu
  Post-emergence herbicidal activity, Trifoliumre pensL. (grade): 5 (Grade 5: the growth control rate is greater than or equal to 85%)

## O=C1C2=C(CCCC2)C(=O)N1c1cc(OCc2nc(-c3ccc(Br)cc3Br)no2)c(Cl)cc1F [Compound A11]
[1]; dosage 2.5 g/mu
  Post-emergence herbicidal activity, P. oleracea (grade): 4 (Grade 4: the growth control rate is greater than or equal to 60% and less than 85%)
[1]; dosage 5 g/mu
  Post-emergence herbicidal activity, P. oleracea (grade): 5 (Grade 5: the growth control rate is greater than or equal to 85%)
[1]; dosage 10 g/mu
  Post-emergence herbicidal activity, P. oleracea (grade): 5 (Grade 5: the growth control rate is greater than or equal to 85%)
[2]; dosage 2.5 g/mu
  Post-emergence herbicidal activity, A. theophrasti (grade): 5 (Grade 5: the growth control rate is greater than or equal to 85%)
[2]; dosage 5 g/mu
  Post-emergence herbicidal activity, A. theophrasti (grade): 5 (Grade 5: the growth control rate is greater than or equal to 85%)
[2]; dosage 10 g/mu
  Post-emergence herbicidal activity, A. theophrasti (grade): 5 (Grade 5: the growth control rate is greater than or equal to 85%)
[3]; dosage 2.5 g/mu
  Post-emergence herbicidal activity, E. crusgalli (grade): 1 (Grade 1: the growth control rate is greater than or equal to 5% and less than 20%)
[3]; dosage 5 g/mu
  Post-emergence herbicidal activity, E. crusgalli (grade): 2 (Grade 2: the growth control rate is greater than or equal to 20% and less than 40%)
[3]; dosage 10 g/mu
  Post-emergence herbicidal activity, E. crusgalli (grade): 3 (Grade 3: the growth control rate is greater than or equal to 40% and less than 60%)
[4]; dosage 2.5 g/mu
  Post-emergence herbicidal activity, A. retroflexus (grade): 5 (Grade 5: the growth control rate is greater than or equal to 85%)
[4]; dosage 5 g/mu
  Post-emergence herbicidal activity, A. retroflexus (grade): 5 (Grade 5: the growth control rate is greater than or equal to 85%)
[4]; dosage 10 g/mu
  Post-emergence herbicidal activity, A. retroflexus (grade): 5 (Grade 5: the growth control rate is greater than or equal to 85%)
[5]; dosage 2.5 g/mu
  Post-emergence herbicidal activity, S. viridis (grade): 2 (Grade 2: the growth control rate is greater than or equal to 20% and less than 40%)
[5]; dosage 5 g/mu
  Post-emergence herbicidal activity, S. viridis (grade): 3 (Grade 3: the growth control rate is greater than or equal to 40% and less than 60%)
[5]; dosage 10 g/mu
  Post-emergence herbicidal activity, S. viridis (grade): 4 (Grade 4: the growth control rate is greater than or equal to 60% and less than 85%)
[6]; dosage 2.5 g/mu
  Post-emergence herbicidal activity, Trifoliumre pensL. (grade): 4 (Grade 4: the growth control rate is greater than or equal to 60% and less than 85%)
[6]; dosage 5 g/mu
  Post-emergence herbicidal activity, Trifoliumre pensL. (grade): 5 (Grade 5: the growth control rate is greater than or equal to 85%)
[6]; dosage 10 g/mu
  Post-emergence herbicidal activity, Trifoliumre pensL. (grade): 5 (Grade 5: the growth control rate is greater than or equal to 85%)

## O=C1C2=C(CCCC2)C(=O)N1c1cc(OCc2nnc(-c3ccc([N+](=O)[O-])cc3F)o2)c(Cl)cc1F [Compound B20]
[1]; dosage 2.5 g/mu
  Post-emergence herbicidal activity, P. oleracea (grade): 5 (Grade 5: the growth control rate is greater than or equal to 85%)
[1]; dosage 5 g/mu
  Post-emergence herbicidal activity, P. oleracea (grade): 5 (Grade 5: the growth control rate is greater than or equal to 85%)
[1]; dosage 10 g/mu
  Post-emergence herbicidal activity, P. oleracea (grade): 5 (Grade 5: the growth control rate is greater than or equal to 85%)
[2]; dosage 2.5 g/mu
  Post-emergence herbicidal activity, A. theophrasti (grade): 5 (Grade 5: the growth control rate is greater than or equal to 85%)
[2]; dosage 5 g/mu
  Post-emergence herbicidal activity, A. theophrasti (grade): 5 (Grade 5: the growth control rate is greater than or equal to 85%)
[2]; dosage 10 g/mu
  Post-emergence herbicidal activity, A. theophrasti (grade): 5 (Grade 5: the growth control rate is greater than or equal to 85%)
[3]; dosage 2.5 g/mu
  Post-emergence herbicidal activity, E. crusgalli (grade): 1 (Grade 1: the growth control rate is greater than or equal to 5% and less than 20%)
[3]; dosage 5 g/mu
  Post-emergence herbicidal activity, E. crusgalli (grade): 2 (Grade 2: the growth control rate is greater than or equal to 20% and less than 40%)
[3]; dosage 10 g/mu
  Post-emergence herbicidal activity, E. crusgalli (grade): 3 (Grade 3: the growth control rate is greater than or equal to 40% and less than 60%)
[4]; dosage 2.5 g/mu
  Post-emergence herbicidal activity, A. retroflexus (grade): 4 (Grade 4: the growth control rate is greater than or equal to 60% and less than 85%)
[4]; dosage 5 g/mu
  Post-emergence herbicidal activity, A. retroflexus (grade): 5 (Grade 5: the growth control rate is greater than or equal to 85%)
[4]; dosage 10 g/mu
  Post-emergence herbicidal activity, A. retroflexus (grade): 5 (Grade 5: the growth control rate is greater than or equal to 85%)
[5]; dosage 2.5 g/mu
  Post-emergence herbicidal activity, S. viridis (grade): 2 (Grade 2: the growth control rate is greater than or equal to 20% and less than 40%)
[5]; dosage 5 g/mu
  Post-emergence herbicidal activity, S. viridis (grade): 3 (Grade 3: the growth control rate is greater than or equal to 40% and less than 60%)
[5]; dosage 10 g/mu
  Post-emergence herbicidal activity, S. viridis (grade): 4 (Grade 4: the growth control rate is greater than or equal to 60% and less than 85%)
[6]; dosage 2.5 g/mu
  Post-emergence herbicidal activity, Trifoliumre pensL. (grade): 4 (Grade 4: the growth control rate is greater than or equal to 60% and less than 85%)
[6]; dosage 5 g/mu
  Post-emergence herbicidal activity, Trifoliumre pensL. (grade): 5 (Grade 5: the growth control rate is greater than or equal to 85%)
[6]; dosage 10 g/mu
  Post-emergence herbicidal activity, Trifoliumre pensL. (grade): 5 (Grade 5: the growth control rate is greater than or equal to 85%)

## O=C1C2=C(CCCC2)C(=O)N1c1cc(OCc2nc(-c3ccccc3C(F)(F)F)no2)c(Cl)cc1F [Compound A18]
[1]; dosage 2.5 g/mu
  Post-emergence herbicidal activity, P. oleracea (grade): 4 (Grade 4: the growth control rate is greater than or equal to 60% and less than 85%)
[1]; dosage 5 g/mu
  Post-emergence herbicidal activity, P. oleracea (grade): 5 (Grade 5: the growth control rate is greater than or equal to 85%)
[1]; dosage 10 g/mu
  Post-emergence herbicidal activity, P. oleracea (grade): 5 (Grade 5: the growth control rate is greater than or equal to 85%)
[2]; dosage 2.5 g/mu
  Post-emergence herbicidal activity, A. theophrasti (grade): 5 (Grade 5: the growth control rate is greater than or equal to 85%)
[2]; dosage 5 g/mu
  Post-emergence herbicidal activity, A. theophrasti (grade): 5 (Grade 5: the growth control rate is greater than or equal to 85%)
[2]; dosage 10 g/mu
  Post-emergence herbicidal activity, A. theophrasti (grade): 5 (Grade 5: the growth control rate is greater than or equal to 85%)
[3]; dosage 2.5 g/mu
  Post-emergence herbicidal activity, E. crusgalli (grade): 1 (Grade 1: the growth control rate is greater than or equal to 5% and less than 20%)
[3]; dosage 5 g/mu
  Post-emergence herbicidal activity, E. crusgalli (grade): 2 (Grade 2: the growth control rate is greater than or equal to 20% and less than 40%)
[3]; dosage 10 g/mu
  Post-emergence herbicidal activity, E. crusgalli (grade): 3 (Grade 3: the growth control rate is greater than or equal to 40% and less than 60%)
[4]; dosage 2.5 g/mu
  Post-emergence herbicidal activity, A. retroflexus (grade): 5 (Grade 5: the growth control rate is greater than or equal to 85%)
[4]; dosage 5 g/mu
  Post-emergence herbicidal activity, A. retroflexus (grade): 5 (Grade 5: the growth control rate is greater than or equal to 85%)
[4]; dosage 10 g/mu
  Post-emergence herbicidal activity, A. retroflexus (grade): 5 (Grade 5: the growth control rate is greater than or equal to 85%)
[5]; dosage 2.5 g/mu
  Post-emergence herbicidal activity, S. viridis (grade): 2 (Grade 2: the growth control rate is greater than or equal to 20% and less than 40%)
[5]; dosage 5 g/mu
  Post-emergence herbicidal activity, S. viridis (grade): 3 (Grade 3: the growth control rate is greater than or equal to 40% and less than 60%)
[5]; dosage 10 g/mu
  Post-emergence herbicidal activity, S. viridis (grade): 4 (Grade 4: the growth control rate is greater than or equal to 60% and less than 85%)
[6]; dosage 2.5 g/mu
  Post-emergence herbicidal activity, Trifoliumre pensL. (grade): 4 (Grade 4: the growth control rate is greater than or equal to 60% and less than 85%)
[6]; dosage 5 g/mu
  Post-emergence herbicidal activity, Trifoliumre pensL. (grade): 5 (Grade 5: the growth control rate is greater than or equal to 85%)
[6]; dosage 10 g/mu
  Post-emergence herbicidal activity, Trifoliumre pensL. (grade): 5 (Grade 5: the growth control rate is greater than or equal to 85%)
